According to ChEMBL document CHEMBL2424636, “Synthesis and anticancer activity evaluation of new 1,2,3-triazole-4-carboxamide derivatives” (2013):

Key:
Format in all cases: functional
[1] = test system: A498; test: Cytotoxicity against human A498 cells assessed as cell growth at 10^-5 M after 48 hrs by SRB assay; conditions: A498, 48 h, read-out: Activity
[2] = test system: HOP-92; test: Cytotoxicity against human HOP92 cells assessed as cell growth at 10^-5 M after 48 hrs by SRB assay; conditions: HOP-92, 48 h, read-out: Activity
[3] = Cytotoxicity against human EKVX cells assessed as cell growth at 10^-5 M after 48 hrs by SRB assay; conditions: read-out: Activity
[4] = test system: SR; test: Cytotoxicity against human SR cells assessed as cell growth at 10^-5 M after 48 hrs by SRB assay; conditions: read-out: Activity
[5] = test system: CCRF-CEM; test: Cytotoxicity against human CCRF-CEM cells assessed as cell growth at 10^-5 M after 48 hrs by SRB assay; conditions: read-out: Activity
[6] = test system: MCF7; test: Cytotoxicity against human MCF7 cells assessed as cell growth at 10^-5 M after 48 hrs by SRB assay; conditions: MCF7, 48 h, read-out: Activity
[7] = test system: UO-31; test: Cytotoxicity against human UO31 cells assessed as cell growth at 10^-5 M after 48 hrs by SRB assay; conditions: UO-31, 48 h, read-out: Activity
[8] = test system: K562; test: Cytotoxicity against human K562 cells assessed as cell growth at 10^-5 M after 48 hrs by SRB assay; conditions: K562, 48 h, read-out: Activity
[9] = test system: HL-60(TB); test: Cytotoxicity against human HL-60(TB) cells assessed as cell growth at 10^-5 M after 48 hrs by SRB assay; conditions: HL-60, 48 h, read-out: Activity
[10] = test system: MDA-MB-231; test: Cytotoxicity against human MDA-MB-231/ATCC cells after 48 hrs by SRB assay; conditions: MDA-MB-231, 48 h
[11] = test system: TK-10; test: Cytotoxicity against human TK10 cells after 48 hrs by SRB assay; conditions: TK-10, 48 h
[12] = test system: RXF 393; test: Cytotoxicity against human RXF393 cells after 48 hrs by SRB assay; conditions: RXF 393, 48 h
[13] = test system: SK-OV-3; test: Cytotoxicity against human SKOV3 cells after 48 hrs by SRB assay; conditions: SK-OV-3, 48 h
[14] = test system: Malme-3M; test: Cytotoxicity against human MALME-3M cells after 48 hrs by SRB assay
[15] = test system: U-251; test: Cytotoxicity against human U251 cells after 48 hrs by SRB assay; conditions: U-251, 48 h
[16] = test system: SNB-75; test: Cytotoxicity against human SNB75 cells after 48 hrs by SRB assay; conditions: SNB-75, 48 h
[17] = test system: SF-539; test: Cytotoxicity against human SF539 cells after 48 hrs by SRB assay; conditions: SF-539, 48 h
[18] = test system: T47D; test: Cytotoxicity against human T47D cells assessed as cell growth at 10^-5 M after 48 hrs by SRB assay; conditions: read-out: Activity
[19] = test system: 786-0; test: Cytotoxicity against human 786-0 cells assessed as cell growth at 10^-5 M after 48 hrs by SRB assay; conditions: 786-0, 48 h, read-out: Activity
[20] = test system: U-251; test: Cytotoxicity against human U251 cells assessed as cell growth at 10^-5 M after 48 hrs by SRB assay; conditions: U-251, 48 h, read-out: Activity
[21] = test system: SNB-75; test: Cytotoxicity against human SNB75 cells assessed as cell growth at 10^-5 M after 48 hrs by SRB assay; conditions: SNB-75, 48 h, read-out: Activity
[22] = test system: SF-539; test: Cytotoxicity against human SF539 cells assessed as cell growth at 10^-5 M after 48 hrs by SRB assay; conditions: SF-539, 48 h, read-out: Activity
[23] = test system: MDA-MB-468; test: Cytotoxicity against human MDA-MB-468 cells assessed as cell growth at 10^-5 M after 48 hrs by SRB assay; conditions: MDA-MB-468, 48 h, read-out: Activity
[24] = test system: IGROV-1; test: Cytotoxicity against human IGROV1 cells assessed as cell growth at 10^-5 M after 48 hrs by SRB assay; conditions: IGROV-1, 48 h, read-out: Activity
[25] = test system: NCI-H522; test: Cytotoxicity against human NCI-H522 cells assessed as cell growth at 10^-5 M after 48 hrs by SRB assay; conditions: NCI-H522, 48 h, read-out: Activity
[26] = test system: UACC-62; test: Cytotoxicity against human UACC62 cells assessed as cell growth at 10^-5 M after 48 hrs by SRB assay; conditions: UACC-62, 48 h, read-out: Activity
[27] = test system: MOLT-4; test: Cytotoxicity against human MOLT4 cells assessed as cell growth at 10^-5 M after 48 hrs by SRB assay; conditions: MOLT-4, 48 h, read-out: Activity
[28] = test system: SK-MEL-5; test: Cytotoxicity against human SK-MEL-5 cells assessed as cell growth at 10^-5 M after 48 hrs by SRB assay; conditions: SK-MEL-5, 48 h, read-out: Activity
[29] = test system: RPMI-8226; test: Cytotoxicity against human RPMI8226 cells assessed as cell growth at 10^-5 M after 48 hrs by SRB assay; conditions: RPMI-8226, 48 h, read-out: Activity

Compound Cc1cccc(C)c1NC(=O)c1nnn(-c2ccc(F)cc2)c1N has a growth at 10 µM [1] of 78.7%, a growth at 10 µM [2] of 76.8% and a growth at 10 µM [3] of 75.9%. It also gave a growth at 10 µM [4] of 66.7% and a growth at 10 µM [5] of 64%.

With CCc1c(C(=O)Nc2cccc(Cl)c2)nnn1-c1ccc2noc(-c3ccccc3)c2c1 the growth at 10 µM [6] was 81.7%, the growth at 10 µM [7] was 82.6% and the growth at 10 µM [4] was 77.6%.

Compound COc1ccc(NC(=O)c2nnn(-c3cccc(C(F)(F)F)c3)c2N)c(OC)c1 has a growth at 10 µM [2] of 77.3%, a growth at 10 µM [8] of 71.7% and a growth at 10 µM [9] of 78.4%.

With COc1ccc(NC(=O)c2nnn(-c3ccc(F)cc3)c2N)c(OC)c1 the GI50 [10] was 6.46 µM, the TGI ([10]; read-out: pTGI) was > 100 µM and the GI50 [11] was 30.2 µM. For the same compound, the TGI ([11]; read-out: pTGI) was > 100 µM, the GI50 [12] was 37.2 µM and the TGI ([12]; read-out: pTGI (converted)) was > 100 µM. For the same compound, the GI50 [13] was 13.8 µM, the TGI ([13]; read-out: pTGI) was > 100 µM and the GI50 [14] was 12.9 µM. For the same compound, the TGI ([14]; read-out: pTGI) was > 100 µM, the GI50 [15] was 11.7 µM and the TGI ([15]; read-out: pTGI) was > 100 µM. The GI50 [16] was 3.89 µM, the TGI ([16]; read-out: pTGI (converted)) was > 100 µM and the GI50 [17] was 17.8 µM. For the same compound, the TGI ([17]; read-out: pTGI) was > 100 µM, the growth at 10 µM [18] was -2.61% and the growth at 10 µM [19] was -1.64%. It also gave a growth at 10 µM [20] of -9.89%, a growth at 10 µM [21] of -27.3% and a growth at 10 µM [22] of -4.64%.

Work on Cc1cc(C)cc(-n2nnc(C(=O)NC(C)C)c2N)c1 yielded a growth at 10 µM [6] of 83.3%, a growth at 10 µM [22] of 78.9% and a growth at 10 µM [4] of 83.6%.

Work on COc1cccc(NC(=O)c2nnn(-c3ccc4noc(-c5ccc(Cl)cc5)c4c3)c2C)c1 yielded a growth at 10 µM [23] of 56.6%, a growth at 10 µM [24] of 49.9% and a growth at 10 µM [21] of 46.6%. It also gave a growth at 10 µM [22] of 54.1%, a growth at 10 µM [25] of 62% and a growth at 10 µM [2] of 61.5%.

CCc1c(C(=O)Nc2ccc(Cl)cc2)nnn1-c1ccc2noc(-c3ccccc3)c2c1 gave a growth at 10 µM [7] of 67.8%, a growth at 10 µM [26] of 83.6% and a growth at 10 µM [25] of 88.9%. It also gave a growth at 10 µM [4] of 85.1%.

Work on Cc1ccc(-n2nnc(C(=O)NCc3ccccc3)c2N)cc1 yielded a growth at 10 µM [4] of 68.2% and a growth at 10 µM [27] of 75.8%.

Cc1ccccc1-n1nnc(C(=O)Nc2ccc(Cl)cc2Cl)c1N gave a growth at 10 µM [18] of 60.9%, a growth at 10 µM [28] of 55.9% and a growth at 10 µM [3] of 56.7%. It also gave a growth at 10 µM [29] of 59.6%.

For CCc1nnc(NC(=O)c2nnn(-c3ccc(C)cc3)c2N)s1, the growth at 10 µM [18] was 77.4%, the growth at 10 µM [21] was 76.2% and the growth at 10 µM [2] was 71.5%.

Work on Nc1c(C(=O)Nc2ccc(F)cc2)nnn1-c1cccc(C(F)(F)F)c1 yielded a growth at 10 µM [6] of 82.5%, a growth at 10 µM [1] of 81.7% and a growth at 10 µM [29] of 81.4%.
